Source: patent US4028396A, “16,16-Spirocycloalkyl prostaglandin derivatives” (American Cyanamid Company, priority 1975, dated 1977)

How the values were obtained:
[1] = test system: basal gastric acid secretion; experiment: inhibition of gastric acid secretion in the acute gastric fistula rat; assay type: in vivo, Female Sprague-Dawley rats; details: 10 mg./kg., intraduodenal
Procedure: The compounds of this invention are also useful as inhibitors of gastric acid secretion and peptic ulcer formation and may be used for the treatment of gastric hyperacidity, gastric erosion, and peptic ulcer. Inhibition of basal gastric acid secretion can be determined by the following procedure.
Female Sprague-Dawley rats weighing 140-160 grams are fasted in individual cages for 18-24 hours. The rats are then lightly anesthetized with ether and their front teeth extracted to avoid destruction of the plastic cannula. A midline incision is then made and the stomach and duodenum exposed. A flanged polyvinyl tube is inserted into the fundic portion of the stomach and secured with a purse string suture line using 4-0 Mersilene. The rat is then dosed by injection of the compound into the duodenum (1.0 ml. per 100 gram body weight). After dosing, the abdominal wall and skin are closed using metal wound clips. The rat is replaced in a cage containing a longitudinal slit to allow the polyvinyl tube to hang freely. An 8 ml. plastic collecting tube is attached to the flanged cannula and hangs freely below the cage. The first 30 minute sample is discarded designating this time as zero. The collecting tube is attached again and samples removed at the end of 60 and 120 minutes. The hourly samples are then transferred to a 15 ml. centrifuge and centrifuged for 5-10 minutes. Total and sediment volume are then recorded with supernatant volume being used as volume of secretion. A 1 ml. or less aliquot is then removed and placed in a 50 ml. beaker containing 10 ml. of distilled water. This sample is then titrated using 0.01N NaOH to pH 7.0 using a Beckman zeromatic pH meter. Volume, tritratable acidity (meq/L) and total acid output (ueg/hour) are recorded. Percent inhibition is determined by comparison with the appropriate control. Groups of three rats were used for preliminary testing, and groups of six rates were used for dose-response evaluations. All compounds are administered in a vehicle consisting of 0.5% methocel, 0.4% tween 80, and saline at a constant volume of 1 ml./100 gram rat. Samples are dispersed by sonification. Percent inhibition is calculated on basis of concurrent vehicle control.
In Table B which follows is given the effect on total acid output after 60 minutes (response A) and 120 minutes (response B) for various doses of representative compounds of this invention.

[2] = test system: bronchospasms elicited by histamine; experiment: bronchodilator activity, Konzett procedure, histamine bronchospasm; assay type: in vivo, guinea pigs; details: Cavia porcellus; three logarithmic cumulative intravenous doses; spasmogen histamine
Procedure: (§1) The compounds of this invention are useful as bronchodilators for the treatment of asthma and chronic bronchitis. Bronchodilator activity is determined in guinea pigs against bronchospasms elicited by intravenous injections of 5-hydroxytryptamine, histamine or acetylcholine by the Konzett procedure. [See J. Lulling, P. Lievens, F. El Sayed and J. Prignot, Arzneimittel-Forschung, 18, 955 (1968).]
(§2) In Table A which follows bronchodilator activity for representative compounds of this invention against one or more of three spasmogenic agents is expressed as an ED50 determined from the results obtained with three logarithmic cumulative intravenous doses.

[3] = test system: bronchospasms elicited by 5-hydroxytryptamine; experiment: bronchodilator activity, Konzett procedure, 5-hydroxytryptamine bronchospasm; assay type: in vivo, guinea pigs; details: Cavia porcellus; three logarithmic cumulative intravenous doses; spasmogen 5-hydroxytryptamine
Procedure: as §1, §2

[4] = test system: bronchospasms elicited by acetylcholine; experiment: bronchodilator activity, Konzett procedure, acetylcholine bronchospasm; assay type: in vivo, guinea pigs; details: Cavia porcellus; three logarithmic cumulative intravenous doses; spasmogen acetylcholine
Procedure: as §1, §2

[5] = test system: basal gastric acid secretion; experiment: inhibition of gastric acid secretion in the acute gastric fistula rat; assay type: in vivo, Female Sprague-Dawley rats; details: oral
[6] = test system: gastric acid output stimulated by histamine; experiment: gastric fistula dog, gastric acid output stimulated by histamine; assay type: in vivo; details: oral
Procedure: (§3) With the former agent a dose of 0.16 mg./kg. is sufficient to inhibit more than 50% of the control output.

[7] = test system: gastric acid output stimulated by gastrin tetrapeptide; experiment: gastric fistula dog, gastric acid output stimulated by gastrin tetrapeptide; assay type: in vivo; details: oral, 0.16 mg./kg., % of the control output
Procedure: as §3

[8] = test system: mobilization of free fatty acids; details: cited from earlier work
[9] = test system: systemic arterial blood pressure; details: in vivo; cited from earlier work
smooth muscle = details: cited from earlier work
[10] = cited from earlier work

Structure (SMILES) | %-Inhibition of Total Acid Output ([1]; after 60 min.) [%] | %-Inhibition of Total Acid Output ([1]; after 120 min.) [%] | ED50 [2] [mg/kg] | ED50 [3] [mg/kg] | ED50 [4] [mg/kg] | %-Inhibition of Total Acid Output ([5]; 10 mg./kg., after 60 min.) [%] | %-Inhibition of Total Acid Output ([5]; 10 mg./kg., after 120 min.) [%] | other results
CCCCC1([C@@H](O)/C=C/[C@H]2CCC(=O)[C@@H]2CCCCCCC(=O)O)CCC1 (relative stereo) [9-oxo-15-epi-hydroxy-16,16-trimethylene-13-trans-prostenoic acid] | 98 | 92 | 0.014 | 0.135 | 0.003 | 85 | 61 | –
CCCCC1([C@H](O)/C=C/[C@H]2CCC(=O)[C@@H]2CCCCCCC(=O)O)CCC1 (relative stereo) [9-oxo-15-hydroxy-16,16-trimethylene-13-trans-prostenoic acid] | 98 | 75 | 0.0024 | 0.02 | 0.048 | – | – | %-Inhibition of Total Acid Output ([5]; 2.5 mg./kg., after 60 min.): 86%; %-Inhibition of Total Acid Output ([5]; 2.5 mg./kg., after 120 min.): 83%
CCCCC1([C@H](O)/C=C/[C@H]2[C@H](O)CC(=O)[C@@H]2C/C=C\CCCC(=O)O)CCC1 (relative stereo) [11α,15-dihydroxy-9-oxo-16,16-trimethylene-5-cis,13-trans-prostadienoic acid] | 100 | 100 | 0.0015 | 0.0025 | 0.0011 | 100 | 100 | inhibition of the stimulation of gastric acid output by histamine [6]: will inhibit the stimulation of gastric acid output; inhibition of gastric acid output stimulated by gastrin tetrapeptide [7]: more than 50%; %-Inhibition of Total Acid Output ([5]; 0.63 mg./kg., after 60 min.): 30%; %-Inhibition of Total Acid Output ([5]; 0.63 mg./kg., after 120 min.): 35%; %-Inhibition of Total Acid Output ([5]; 1.25 mg./kg., after 60 min.): 40%; %-Inhibition of Total Acid Output ([5]; 1.25 mg./kg., after 120 min.): 36%; %-Inhibition of Total Acid Output ([5]; 2.5 mg./kg., after 60 min.): 87%; %-Inhibition of Total Acid Output ([5]; 2.5 mg./kg., after 120 min.): 74%
CCCCC1([C@@H](O)/C=C/[C@H]2[C@H](O)CC(=O)[C@@H]2C/C=C\CCCC(=O)O)CCC1 (relative stereo) [11α,15-epi-dihydroxy-9-oxo-16,16-trimethylene-5-cis,13-trans-prostadienoic acid] | 98 | 86 | 0.048 | 0.305 | 0.032 | 32 | 39 | –
CCCCC1([C@@H](O)/C=C/[C@H]2CCC(=O)[C@@H]2CCCCCCC(=O)OCC)CCC1 (relative stereo) [ethyl 15-epi-hydroxy-9-oxo-16,16-trimethylene-13-trans-prostenoate] | 98 | 87 | – | – | – | 77 | 67 | –
CCCCC1([C@H](O)/C=C/[C@H]2CCC(=O)[C@@H]2CCCCCCC(=O)OCC)CCC1 (relative stereo) [ethyl 15-hydroxy-9-oxo-16,16-trimethylene-13-trans-prostenoate] | 100 | 100 | – | – | – | 48 | 38 | –
CCCCC[C@H](O)/C=C/[C@H]1[C@H](O)CC(=O)[C@@H]1CCCCCCC(=O)O [PGE1] | – | – | – | – | – | – | – | potency as antilipolytic agent [8]: potent; potency in causing vasodepression [9]: extremely potent; potency in causing smooth muscle stimulation (smooth muscle): extremely potent
CCCCC[C@H](O)/C=C/[C@H]1[C@H](O)CC(=O)[C@@H]1C/C=C\CCCC(=O)O [prostaglandin E2] | – | – | – | – | – | – | – | potency as antilipolytic agent [8]: potent; potency in causing vasodepression [9]: extremely potent; potency in causing smooth muscle stimulation (smooth muscle): extremely potent; time within which the solution must be used ([10]; room temperature): one day; time within which saline solution should preferably be used ([10]; saline solution stored at 40° C. (so in the source), preferably): 2 to 3 days; time within which saline solution should be used ([10]; saline solution stored at 40° C. (so in the source)): a week; decrease in biological activity on storage ([10]; ten days storage at 4° C., concentration 100 mg./ml.): significant decrease
